assay: Inhibition of alpha-glucosidase activity; parameters: species or system Saccharomyces cerevisiae

Compound	IC50
O=C(O)/C=C/c1ccc(Cl)cc1	390 µM
COc1cccc(/C=C/C(=O)O)c1	580 µM
CCCCOc1ccc(/C=C/C(=O)O)cc1	> 5000 µM
O=C(O)/C=C/c1ccc(OCc2ccccc2)cc1	> 5000 µM
O=C(O)/C=C/c1ccc(Oc2ccccc2)cc1	440 µM
O=C(O)/C=C/c1ccc(Br)cc1	> 5000 µM
O=C(O)/C=C/c1cccc(O)c1	1270 µM
CCCCCCOc1ccc(/C=C/C(=O)O)cc1	> 5000 µM
O=C(O)/C=C/c1ccc([N+](=O)[O-])cc1	> 5000 µM
O=C(O)/C=C/c1ccc(F)cc1	270 µM
CCOC(=O)/C=C/c1ccc(OC)cc1 [4-METHOXY ETHYL CINNAMATE]	50 µM
COc1ccc(/C=C/C(=O)O)cc1 [4-METHOXYCINNAMIC ACID]	40 µM
O=C(O)/C=C/c1ccccc1 [CINNAMIC ACID]	> 5000 µM
O=C(O)/C=C/c1ccc(O)cc1 [COUMARIC ACID]	200 µM
COc1ccccc1/C=C/C(=O)O [COUMARINIC ACID METHYL ETHER]	4340 µM
OC[C@H]1NC[C@H](O)[C@@H](O)[C@@H]1O [DUVOGLUSTAT]	5600 µM
CCOC(=O)/C=C/c1ccccc1 [ETHYL CINNAMATE]	> 5000 µM
O=C(O)/C=C/c1ccccc1O [O-COUMARIC ACID]	> 5000 µM

— ChEMBL document CHEMBL1146762, “Structure-activity relationships of trans-cinnamic acid derivatives on alpha-glucosidase inhibition” (Bioorg Med Chem Lett, 2004)
